Test system: SEM cells
Assay: cell viability relative to DMSO control; higher = less cytotoxic
Conditions: 48 h
Outline: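 Leukemia cells (NOMO1 or SEM, 500 cells/well; P12-Ichikawa, 1000 cells/well) were seeded in 5 μl in 1536-well plates after at least four passages of adaptation to each medium. They received library compounds in DMSO by pin dosing, 11 threefold points from 47 μM to 0.79 nM. Luminescence with CellTiter-Glo One was read after 48 h at 37°C. Viability is stated per plate relative to DMSO wells, with cell-free wells as background.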

[1] = HPLM + 10% dialyzed FBS, 0.000781 µM
[2] = HPLM + 10% dialyzed FBS, 0.00234 µM
[3] = HPLM + 10% dialyzed FBS, 0.00702 µM
[4] = HPLM + 10% dialyzed FBS, 0.0211 µM
[5] = HPLM + 10% dialyzed FBS, 0.0632 µM
[6] = HPLM + 10% dialyzed FBS, 0.19 µM
[7] = HPLM + 10% dialyzed FBS, 0.569 µM
[8] = HPLM + 10% dialyzed FBS, 1.71 µM
[9] = HPLM + 10% dialyzed FBS, 5.12 µM
[10] = HPLM + 10% dialyzed FBS, 15.4 µM
[11] = HPLM + 10% dialyzed FBS, 46.1 µM
[12] = RPMI 5 mM glucose + 10% FBS, 0.000781 µM
[13] = RPMI 5 mM glucose + 10% FBS, 0.00234 µM
[14] = RPMI 5 mM glucose + 10% FBS, 0.00702 µM
[15] = RPMI 5 mM glucose + 10% FBS, 0.0211 µM
[16] = RPMI 5 mM glucose + 10% FBS, 0.0632 µM
[17] = RPMI 5 mM glucose + 10% FBS, 0.19 µM
[18] = RPMI 5 mM glucose + 10% FBS, 0.569 µM
[19] = RPMI 5 mM glucose + 10% FBS, 1.71 µM
[20] = RPMI 5 mM glucose + 10% FBS, 5.12 µM
[21] = RPMI 5 mM glucose + 10% FBS, 15.4 µM
[22] = RPMI 5 mM glucose + 10% FBS, 46.1 µM
[23] = RPMI 5 mM glucose + 10% dialyzed FBS, 0.000781 µM
[24] = RPMI 5 mM glucose + 10% dialyzed FBS, 0.00234 µM
[25] = RPMI 5 mM glucose + 10% dialyzed FBS, 0.00702 µM
[26] = RPMI 5 mM glucose + 10% dialyzed FBS, 0.0211 µM
[27] = RPMI 5 mM glucose + 10% dialyzed FBS, 0.0632 µM
[28] = RPMI 5 mM glucose + 10% dialyzed FBS, 0.19 µM
[29] = RPMI 5 mM glucose + 10% dialyzed FBS, 0.569 µM
[30] = RPMI 5 mM glucose + 10% dialyzed FBS, 1.71 µM
[31] = RPMI 5 mM glucose + 10% dialyzed FBS, 5.12 µM
[32] = RPMI 5 mM glucose + 10% dialyzed FBS, 15.4 µM
[33] = RPMI 5 mM glucose + 10% dialyzed FBS, 46.1 µM

Cc1ccc(C(=O)Nc2cccc(C(F)(F)F)c2)cc1Nc1nc(-c2cccnc2)nc2c1cnn2C
cell viability [1]: 38.9% | cell viability [2]: 83.8% | cell viability [3]: 89.1% | cell viability [4]: 87.7% | cell viability [5]: 78.7% | cell viability [6]: 95.3% | cell viability [7]: 90.5% | cell viability [8]: 75.3% | cell viability [9]: 83.9% | cell viability [10]: 59% | cell viability [11]: 53.4% | cell viability [12]: 58.7% | cell viability [13]: 103% | cell viability [14]: 104% | cell viability [15]: 102% | cell viability [16]: 85.7% | cell viability [17]: 101% | cell viability [18]: 83% | cell viability [19]: 83% | cell viability [20]: 98.4% | cell viability [21]: 56.8% | cell viability [22]: 60.6% | cell viability [23]: 31% | cell viability [24]: 92.1% | cell viability [25]: 109% | cell viability [26]: 83.8% | cell viability [27]: 82.8% | cell viability [28]: 97.7% | cell viability [29]: 92.1% | cell viability [30]: 81.1% | cell viability [31]: 113% | cell viability [32]: 68.5% | cell viability [33]: 62.1%

CCCN[C@H]1CCc2nc(N)sc2C1
cell viability [1]: 93.2% | cell viability [2]: 42% | cell viability [3]: 98.4% | cell viability [4]: 98.8% | cell viability [5]: 104% | cell viability [6]: 96.4% | cell viability [7]: 95.4% | cell viability [8]: 99.2% | cell viability [9]: 104% | cell viability [10]: 99.8% | cell viability [11]: 105% | cell viability [12]: 91.7% | cell viability [13]: 39.1% | cell viability [14]: 99.4% | cell viability [15]: 87.3% | cell viability [16]: 96.2% | cell viability [17]: 98.9% | cell viability [18]: 103% | cell viability [19]: 97.6% | cell viability [20]: 85.6% | cell viability [21]: 105% | cell viability [22]: 104% | cell viability [23]: 89.2% | cell viability [24]: 37.6% | cell viability [25]: 98.3% | cell viability [26]: 101% | cell viability [27]: 119% | cell viability [28]: 125% | cell viability [29]: 106% | cell viability [30]: 105% | cell viability [31]: 112% | cell viability [32]: 111% | cell viability [33]: 91.4%

CCNC(=O)CCC/C=C\C[C@@H]1[C@@H](/C=C/C(O)CCc2ccccc2)[C@@H](O)C[C@@H]1O (some centres undefined)
cell viability [1]: 96.2% | cell viability [2]: 116% | cell viability [3]: 100% | cell viability [4]: 98.8% | cell viability [5]: 115% | cell viability [6]: 104% | cell viability [7]: 104% | cell viability [8]: 108% | cell viability [9]: 108% | cell viability [10]: 91.2% | cell viability [11]: 87.4% | cell viability [12]: 95.4% | cell viability [13]: 112% | cell viability [14]: 110% | cell viability [15]: 98.7% | cell viability [16]: 118% | cell viability [17]: 111% | cell viability [18]: 117% | cell viability [19]: 118% | cell viability [20]: 111% | cell viability [21]: 98.2% | cell viability [22]: 100% | cell viability [23]: 89.6% | cell viability [24]: 117% | cell viability [25]: 128% | cell viability [26]: 107% | cell viability [27]: 120% | cell viability [28]: 109% | cell viability [29]: 102% | cell viability [30]: 106% | cell viability [31]: 114% | cell viability [32]: 107% | cell viability [33]: 81.3%

CN(CCOc1ccc(CC2SC(=O)NC2=O)cc1)c1ccccn1 (centres undefined)
cell viability [1]: 116% | cell viability [2]: 117% | cell viability [3]: 121% | cell viability [4]: 106% | cell viability [5]: 113% | cell viability [6]: 123% | cell viability [7]: 117% | cell viability [8]: 115% | cell viability [9]: 124% | cell viability [10]: 121% | cell viability [11]: 116% | cell viability [12]: 76.7% | cell viability [13]: 94.7% | cell viability [14]: 85.4% | cell viability [15]: 102% | cell viability [16]: 84.2% | cell viability [17]: 81.9% | cell viability [18]: 90.5% | cell viability [19]: 95.1% | cell viability [20]: 85.7% | cell viability [21]: 97.3% | cell viability [22]: 104% | cell viability [23]: 107% | cell viability [24]: 119% | cell viability [25]: 113% | cell viability [26]: 117% | cell viability [27]: 113% | cell viability [28]: 107% | cell viability [29]: 112% | cell viability [30]: 106% | cell viability [31]: 121% | cell viability [32]: 114% | cell viability [33]: 122%

NC1=NC(=O)N2CC12 (centres undefined)
cell viability [1]: 84.2% | cell viability [2]: 79.8% | cell viability [3]: 87.7% | cell viability [4]: 86.3% | cell viability [5]: 87.2% | cell viability [6]: 76.5% | cell viability [7]: 94.9% | cell viability [8]: 60.6% | cell viability [9]: 34.9% | cell viability [10]: 3.13% | cell viability [11]: 2.28% | cell viability [12]: 106% | cell viability [13]: 82.3% | cell viability [14]: 86.8% | cell viability [15]: 104% | cell viability [16]: 85.1% | cell viability [17]: 82.6% | cell viability [18]: 85.2% | cell viability [19]: 43% | cell viability [20]: 25.6% | cell viability [21]: 2.22% | cell viability [22]: 2.07% | cell viability [23]: 77.3% | cell viability [24]: 79.6% | cell viability [25]: 82.5% | cell viability [26]: 78.7% | cell viability [27]: 79.3% | cell viability [28]: 69.3% | cell viability [29]: 84.1% | cell viability [30]: 51.4% | cell viability [31]: 23.9% | cell viability [32]: 1.65% | cell viability [33]: 1.54%

O=C(/C=C/c1ccc(/C=C/C(=O)Nc2ccc(C3=NCCN3)cc2)cc1)Nc1ccc(C2=NCCN2)cc1
cell viability [1]: 96.5% | cell viability [2]: 103% | cell viability [3]: 101% | cell viability [4]: 115% | cell viability [5]: 129% | cell viability [6]: 118% | cell viability [7]: 115% | cell viability [8]: 117% | cell viability [9]: 103% | cell viability [10]: 103% | cell viability [11]: 115% | cell viability [12]: 93.6% | cell viability [13]: 104% | cell viability [14]: 95.5% | cell viability [15]: 102% | cell viability [16]: 109% | cell viability [17]: 99.2% | cell viability [18]: 110% | cell viability [19]: 114% | cell viability [20]: 93.5% | cell viability [21]: 72.8% | cell viability [22]: 52.3% | cell viability [23]: 104% | cell viability [24]: 120% | cell viability [25]: 115% | cell viability [26]: 114% | cell viability [27]: 109% | cell viability [28]: 113% | cell viability [29]: 111% | cell viability [30]: 120% | cell viability [31]: 108% | cell viability [32]: 97.7% | cell viability [33]: 64.6%

CNC(=O)c1ccc2c(c1)NC(=O)/C2=C(\Nc1cccc(CN(C)C)c1)c1ccccc1
cell viability [1]: 74.4% | cell viability [2]: 93.6% | cell viability [3]: 98.8% | cell viability [4]: 109% | cell viability [5]: 85.3% | cell viability [6]: 89.9% | cell viability [7]: 78.1% | cell viability [8]: 57.7% | cell viability [9]: 4.44% | cell viability [10]: 23.4% | cell viability [11]: 1.26% | cell viability [12]: 97% | cell viability [13]: 94.9% | cell viability [14]: 97.3% | cell viability [15]: 106% | cell viability [16]: 93.5% | cell viability [17]: 89.7% | cell viability [18]: 94.5% | cell viability [19]: 4.33% | cell viability [20]: 3.4% | cell viability [21]: 1.5% | cell viability [22]: 1.29% | cell viability [23]: 78.4% | cell viability [24]: 92.3% | cell viability [25]: 97.5% | cell viability [26]: 92.1% | cell viability [27]: 87.2% | cell viability [28]: 108% | cell viability [29]: 81.4% | cell viability [30]: 35.4% | cell viability [31]: 3.62% | cell viability [32]: 1.76% | cell viability [33]: 1.28%

CN(C)c1nc(Cc2ccc(NC(=O)c3ccc(C(F)(F)F)cc3)cc2)nc(N(C)C)c1CC(=O)O
cell viability [1]: 104% | cell viability [2]: 107% | cell viability [3]: 106% | cell viability [4]: 100% | cell viability [5]: 116% | cell viability [6]: 100% | cell viability [7]: 123% | cell viability [8]: 112% | cell viability [9]: 125% | cell viability [10]: 116% | cell viability [11]: 83.4% | cell viability [12]: 113% | cell viability [13]: 99.4% | cell viability [14]: 101% | cell viability [15]: 93.7% | cell viability [16]: 111% | cell viability [17]: 82.8% | cell viability [18]: 118% | cell viability [19]: 93.4% | cell viability [20]: 110% | cell viability [21]: 100% | cell viability [22]: 74.7% | cell viability [23]: 99.1% | cell viability [24]: 118% | cell viability [25]: 102% | cell viability [26]: 108% | cell viability [27]: 121% | cell viability [28]: 117% | cell viability [29]: 113% | cell viability [30]: 115% | cell viability [31]: 109% | cell viability [32]: 105% | cell viability [33]: 90%

— the supplement of paper PMC11451515
